Source: ChEMBL document CHEMBL3745697, “Identification of azabenzimidazoles as potent JAK1 selective inhibitors” (Bioorg Med Chem Lett, 2016)
pIC50: −log10 of the molar value. The source made the active and inactive calls. The calls are words filed in the database; no cut-off is given here.

Columns and labels:
[1] = Cell cycle arrest in human SW620 cells assessed as accumulation at Sub G1 phase at 10 uM after 24 hrs by propidium iodide staining-based flow cytometric analysis (reference value: 1.6%); assay type: functional; settings: SW-620
[2] = Cell cycle arrest in human SW620 cells assessed as multi-nuclear cells at 1 uM after 24 hrs by propidium iodide staining-based flow cytometric analysis (reference value: 5%); assay type: functional; settings: SW-620
[3] = target: Non-receptor tyrosine-protein kinase TYK2 (Homo sapiens, UniProt P29597); assay: Inhibition of N-terminal 6His-tagged human recombinant Tyk2
Non-receptor tyrosine-protein kinase TYK2, sequence (P29597 whole entry, the tested form may be a part): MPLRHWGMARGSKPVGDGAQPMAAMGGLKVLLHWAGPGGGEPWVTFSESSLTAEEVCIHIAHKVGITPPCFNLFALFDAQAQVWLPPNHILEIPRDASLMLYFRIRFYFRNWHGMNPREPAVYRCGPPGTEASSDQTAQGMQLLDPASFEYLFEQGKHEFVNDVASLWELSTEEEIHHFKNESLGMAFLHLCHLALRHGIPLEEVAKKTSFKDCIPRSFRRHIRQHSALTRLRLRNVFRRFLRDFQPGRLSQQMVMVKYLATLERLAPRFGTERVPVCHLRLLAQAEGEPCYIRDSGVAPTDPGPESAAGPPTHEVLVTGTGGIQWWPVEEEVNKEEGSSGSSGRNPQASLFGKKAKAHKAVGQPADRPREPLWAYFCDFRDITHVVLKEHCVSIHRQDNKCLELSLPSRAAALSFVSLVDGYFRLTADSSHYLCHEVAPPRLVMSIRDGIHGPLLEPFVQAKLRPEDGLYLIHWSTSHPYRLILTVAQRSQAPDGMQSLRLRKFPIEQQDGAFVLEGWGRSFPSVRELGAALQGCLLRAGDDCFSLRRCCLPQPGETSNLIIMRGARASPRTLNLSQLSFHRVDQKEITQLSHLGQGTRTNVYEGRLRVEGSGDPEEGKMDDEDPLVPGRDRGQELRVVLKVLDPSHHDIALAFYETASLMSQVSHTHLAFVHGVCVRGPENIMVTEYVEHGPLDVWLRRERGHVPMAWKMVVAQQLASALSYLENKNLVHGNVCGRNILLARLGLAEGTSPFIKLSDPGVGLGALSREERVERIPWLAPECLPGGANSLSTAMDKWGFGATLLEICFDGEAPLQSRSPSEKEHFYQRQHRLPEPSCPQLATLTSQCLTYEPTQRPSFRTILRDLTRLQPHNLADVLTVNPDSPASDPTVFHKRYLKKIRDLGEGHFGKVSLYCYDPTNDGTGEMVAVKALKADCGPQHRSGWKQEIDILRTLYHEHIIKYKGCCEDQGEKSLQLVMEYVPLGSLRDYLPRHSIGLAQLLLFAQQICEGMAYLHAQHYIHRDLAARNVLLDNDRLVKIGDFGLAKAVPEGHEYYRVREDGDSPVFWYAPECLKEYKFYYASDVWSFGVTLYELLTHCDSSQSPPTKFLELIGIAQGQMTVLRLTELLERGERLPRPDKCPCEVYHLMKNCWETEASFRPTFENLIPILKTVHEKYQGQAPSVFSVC

Aurora kinase B = Aurora kinase B (Homo sapiens, UniProt Q96GD4); assay: Inhibition of GST-INCENP activated N-terminal 6His-tagged human recombinant full length Aurora B (1 to 344 residues) expressed in baculovirus expression system using 5FAM-LRRASLG as substrate by microfluidic capillary electrophoresis method
Aurora kinase B, sequence (Q96GD4 whole entry, the tested form may be a part): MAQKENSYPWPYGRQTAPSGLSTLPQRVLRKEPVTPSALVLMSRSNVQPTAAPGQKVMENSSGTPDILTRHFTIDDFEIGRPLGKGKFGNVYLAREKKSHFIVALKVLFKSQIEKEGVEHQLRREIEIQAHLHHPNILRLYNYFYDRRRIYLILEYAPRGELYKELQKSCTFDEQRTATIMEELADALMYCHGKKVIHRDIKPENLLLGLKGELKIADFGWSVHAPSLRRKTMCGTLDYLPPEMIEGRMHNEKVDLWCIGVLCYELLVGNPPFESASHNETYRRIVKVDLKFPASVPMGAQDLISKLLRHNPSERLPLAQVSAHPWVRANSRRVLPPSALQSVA

[4] = Cell cycle arrest in human SW620 cells assessed as accumulation at S phase at 1 uM after 24 hrs by propidium iodide staining-based flow cytometric analysis (reference value: 13.9%); assay type: functional; settings: SW-620
[5] = target: T1, Tyrosine-protein kinase JAK2 (Homo sapiens, UniProt O60674); assay: Inhibition of JAK2 in human HEL 92.1.7 cells assessed as reduction in STAT5 phosphorylation after 2 hrs by Western blot analysis; assay type: cell-based
T1 sequence (O60674 whole entry): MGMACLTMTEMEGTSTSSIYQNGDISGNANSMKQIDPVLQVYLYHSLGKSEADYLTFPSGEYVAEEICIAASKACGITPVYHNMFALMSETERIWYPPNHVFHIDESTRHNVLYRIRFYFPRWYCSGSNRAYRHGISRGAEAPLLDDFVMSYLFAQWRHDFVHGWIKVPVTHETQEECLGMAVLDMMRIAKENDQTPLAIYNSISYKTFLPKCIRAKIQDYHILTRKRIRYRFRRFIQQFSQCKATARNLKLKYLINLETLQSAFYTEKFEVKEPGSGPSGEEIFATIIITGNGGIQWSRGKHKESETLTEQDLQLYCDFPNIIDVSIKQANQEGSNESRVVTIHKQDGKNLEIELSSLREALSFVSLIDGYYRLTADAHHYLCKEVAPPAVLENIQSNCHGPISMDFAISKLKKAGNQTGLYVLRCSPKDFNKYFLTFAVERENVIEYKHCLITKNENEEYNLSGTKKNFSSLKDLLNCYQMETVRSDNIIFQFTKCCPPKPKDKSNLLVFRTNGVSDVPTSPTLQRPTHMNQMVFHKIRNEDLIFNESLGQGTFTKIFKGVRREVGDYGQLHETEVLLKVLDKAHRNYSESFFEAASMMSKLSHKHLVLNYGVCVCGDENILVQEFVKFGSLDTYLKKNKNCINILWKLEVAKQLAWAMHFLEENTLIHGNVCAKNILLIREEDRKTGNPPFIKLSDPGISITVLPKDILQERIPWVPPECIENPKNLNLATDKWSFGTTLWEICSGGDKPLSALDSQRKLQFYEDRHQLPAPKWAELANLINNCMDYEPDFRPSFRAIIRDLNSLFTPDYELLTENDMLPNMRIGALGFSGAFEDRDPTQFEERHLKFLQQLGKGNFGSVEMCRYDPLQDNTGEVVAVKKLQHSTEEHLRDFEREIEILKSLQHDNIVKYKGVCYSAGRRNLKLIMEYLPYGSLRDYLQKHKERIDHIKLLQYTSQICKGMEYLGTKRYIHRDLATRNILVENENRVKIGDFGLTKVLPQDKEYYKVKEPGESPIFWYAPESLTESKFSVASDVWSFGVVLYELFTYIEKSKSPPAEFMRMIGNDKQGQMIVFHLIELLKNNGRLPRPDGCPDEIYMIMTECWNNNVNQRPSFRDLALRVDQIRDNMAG

[6] = Cell cycle arrest in human SW620 cells assessed as multi-nuclear cells at 10 uM after 24 hrs by propidium iodide staining-based flow cytometric analysis (reference value: 5%); assay type: functional; settings: SW-620
Mus musculus [7] = assay: Inhibition of JAK1-mediated STAT3 phosphorylation in human NCI-H1975 cells xenografted in NCr nude mouse at 200 mg/kg, po administered as single dose after 1.5 hrs by Western blot analysis; assay type: functional
[8] = Cell cycle arrest in human SW620 cells assessed as accumulation at G1 phase at 10 uM after 24 hrs by propidium iodide staining-based flow cytometric analysis (reference value: 61.4%); assay type: functional; settings: SW-620
[9] = target: Cyclin-dependent kinase 2/cyclin E1 (Homo sapiens, UniProt P24941); assay: Inhibition of N-terminal 6His-tagged human recombinant full length CDK2 (1 to 304 residues)/Cyclin E1 (1 to 410 residues) expressed in insect cells using FL-Ahx-QSPKKG-CONH2 as substrate by microfluidic capillary electrophoresis method
[10] = Cell cycle arrest in human SW620 cells assessed as accumulation at G2/M phase at 10 uM after 24 hrs by propidium iodide staining-based flow cytometric analysis (reference value: 17.4%); assay type: functional; settings: SW-620
[11] = target: T2, Tyrosine-protein kinase JAK1 (Homo sapiens, UniProt P23458); assay: Inhibition of N-terminal GST-fused human recombinant JAK1 (866 to 1154 residues) expressed in insect cells using FITC-C6-KKHTDDGYMPMSPGVA-NH2 as substrate by microfluidic capillary electrophoresis method
T2 sequence (P23458 whole entry, the tested form may be a part): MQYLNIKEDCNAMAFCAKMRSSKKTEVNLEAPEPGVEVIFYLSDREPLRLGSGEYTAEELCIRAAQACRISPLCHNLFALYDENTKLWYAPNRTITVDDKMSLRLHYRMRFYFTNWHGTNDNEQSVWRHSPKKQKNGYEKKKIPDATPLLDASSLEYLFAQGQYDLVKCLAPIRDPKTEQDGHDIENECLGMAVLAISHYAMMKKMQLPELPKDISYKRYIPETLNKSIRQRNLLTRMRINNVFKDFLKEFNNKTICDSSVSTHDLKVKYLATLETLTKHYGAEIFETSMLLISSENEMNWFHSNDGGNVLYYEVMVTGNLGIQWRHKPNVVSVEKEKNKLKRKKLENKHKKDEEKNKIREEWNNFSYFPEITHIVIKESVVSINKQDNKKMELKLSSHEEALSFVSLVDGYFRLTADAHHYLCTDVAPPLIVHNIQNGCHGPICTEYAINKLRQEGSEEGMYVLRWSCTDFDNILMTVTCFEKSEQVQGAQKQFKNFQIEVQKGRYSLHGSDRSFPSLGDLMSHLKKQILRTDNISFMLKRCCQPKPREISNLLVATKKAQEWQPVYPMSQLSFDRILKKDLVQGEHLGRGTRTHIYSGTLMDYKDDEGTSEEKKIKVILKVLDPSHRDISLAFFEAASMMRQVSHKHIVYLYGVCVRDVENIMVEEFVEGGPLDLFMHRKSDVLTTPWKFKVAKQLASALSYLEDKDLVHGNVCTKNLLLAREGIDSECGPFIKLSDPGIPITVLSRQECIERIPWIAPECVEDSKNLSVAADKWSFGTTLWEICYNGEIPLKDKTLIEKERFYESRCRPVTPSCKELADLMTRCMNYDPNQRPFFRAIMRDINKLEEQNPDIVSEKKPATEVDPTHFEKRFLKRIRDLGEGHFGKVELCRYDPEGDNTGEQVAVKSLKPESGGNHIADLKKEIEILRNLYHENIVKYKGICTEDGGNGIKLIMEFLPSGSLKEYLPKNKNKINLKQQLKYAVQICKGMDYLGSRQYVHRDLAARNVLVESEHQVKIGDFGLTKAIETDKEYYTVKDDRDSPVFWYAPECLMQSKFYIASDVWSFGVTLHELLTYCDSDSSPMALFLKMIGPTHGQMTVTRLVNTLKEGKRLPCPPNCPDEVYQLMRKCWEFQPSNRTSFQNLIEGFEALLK

[12] = target: T1, Tyrosine-protein kinase JAK2; assay: Inhibition of N-terminal GST-fused recombinant JAK2 (831 to 1132 residues) (unknown origin) expressed in insect cells using 5FAM-GEEPLYWSFPAKKK-NH2 as substrate by microfluidic capillary electrophoresis method
[13] = target: T2, Tyrosine-protein kinase JAK1; assay: Inhibition of JAK1 in human NCI-H1975 cells assessed as reduction in STAT3 phosphorylation after 2 hrs; assay type: cell-based
[14] = Cell cycle arrest in human SW620 cells assessed as accumulation at G2/M phase at 1 uM after 24 hrs by propidium iodide staining-based flow cytometric analysis (reference value: 17.4%); assay type: functional; settings: SW-620
[15] = target: T3, Tyrosine-protein kinase JAK3 (Homo sapiens, UniProt P52333); assay: Inhibition of N-terminal GST-fused recombinant JAK3 (781 to 1124 residues) (unknown origin) expressed in insect cells using 5FAM-GEEPLYWSFPAKKK-NH2 as substrate by microfluidic capillary electrophoresis method
T3 sequence (P52333 whole entry): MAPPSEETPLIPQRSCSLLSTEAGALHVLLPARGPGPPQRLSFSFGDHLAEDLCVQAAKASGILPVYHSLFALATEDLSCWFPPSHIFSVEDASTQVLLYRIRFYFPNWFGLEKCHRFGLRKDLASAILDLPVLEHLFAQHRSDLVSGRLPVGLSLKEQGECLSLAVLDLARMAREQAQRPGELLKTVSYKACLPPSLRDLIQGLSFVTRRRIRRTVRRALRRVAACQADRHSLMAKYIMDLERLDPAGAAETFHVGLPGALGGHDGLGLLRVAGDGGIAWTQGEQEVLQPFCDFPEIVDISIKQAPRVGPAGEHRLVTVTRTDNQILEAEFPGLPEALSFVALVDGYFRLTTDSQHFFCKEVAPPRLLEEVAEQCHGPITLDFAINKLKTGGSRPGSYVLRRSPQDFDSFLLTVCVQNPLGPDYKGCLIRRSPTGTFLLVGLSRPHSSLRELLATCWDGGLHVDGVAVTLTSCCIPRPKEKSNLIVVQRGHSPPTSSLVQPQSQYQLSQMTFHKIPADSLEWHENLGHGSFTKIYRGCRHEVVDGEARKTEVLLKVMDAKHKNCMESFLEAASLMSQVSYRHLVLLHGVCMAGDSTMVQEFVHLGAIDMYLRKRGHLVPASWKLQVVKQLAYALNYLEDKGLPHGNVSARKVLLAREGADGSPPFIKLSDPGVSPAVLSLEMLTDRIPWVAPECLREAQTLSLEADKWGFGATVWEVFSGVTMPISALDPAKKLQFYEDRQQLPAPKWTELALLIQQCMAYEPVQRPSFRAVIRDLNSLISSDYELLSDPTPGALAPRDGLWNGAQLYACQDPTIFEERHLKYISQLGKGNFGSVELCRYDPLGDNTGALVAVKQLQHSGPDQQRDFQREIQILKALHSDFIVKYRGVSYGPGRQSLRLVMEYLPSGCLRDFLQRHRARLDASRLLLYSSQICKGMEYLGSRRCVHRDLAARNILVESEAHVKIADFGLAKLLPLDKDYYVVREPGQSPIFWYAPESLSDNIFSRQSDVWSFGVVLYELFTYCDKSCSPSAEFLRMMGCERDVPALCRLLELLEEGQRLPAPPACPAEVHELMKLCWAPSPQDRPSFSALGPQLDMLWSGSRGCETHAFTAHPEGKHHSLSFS

[16] = Cell cycle arrest in human SW620 cells assessed as accumulation at G1 phase at 1 uM after 24 hrs by propidium iodide staining-based flow cytometric analysis (reference value: 61.4%); assay type: functional; settings: SW-620
[17] = target: T2, Tyrosine-protein kinase JAK1; assay: Inhibition of JAK1 in human NCI-H1975 cells assessed as reduction in STAT3 phosphorylation at 0.003 to 3 uM after 2 hrs by Western blot analysis; assay type: cell-based
[18] = Cell cycle arrest in human SW620 cells assessed as accumulation at Sub G1 phase at 1 uM after 24 hrs by propidium iodide staining-based flow cytometric analysis (reference value: 1.6%); assay type: functional; settings: SW-620
[19] = Cell cycle arrest in human SW620 cells assessed as accumulation at S phase at 10 uM after 24 hrs by propidium iodide staining-based flow cytometric analysis (reference value: 13.9%); assay type: functional; settings: SW-620
Mus musculus [20] = assay: Inhibition of JAK1-mediated STAT3 phosphorylation in human NCI-H1975 cells xenografted in NCr nude mouse at 200 mg/kg, po administered as single dose after 8 hrs by Western blot analysis; assay type: functional, organism-based

pIC50 [3]: 4.55 | pIC50 (Aurora kinase B): 6.88 | inhibition [5]: inactive | pIC50 [9]: 6.94 | pIC50 [11]: 7.66 | pIC50 [12]: < 4.66 | pIC50 [13]: 7.41 | pIC50 [15]: 5.08 | inhibition [17]: Active
SMILES: COc1cc(F)c(-c2nc3c(NCC4CCNCC4)c(Cl)cnc3[nH]2)cc1OC
Activity [1]: 10.8% | Activity [2]: 7.9% | Activity [4]: 6.5% | Activity [6]: 13.1% | inhibition in vivo at 200 mg/kg (Mus musculus [7]): 80% | Activity [8]: 30.3% | Activity [10]: 38.9% | Activity [14]: 27% | Activity [16]: 56.1% | Activity [18]: 2.5% | Activity [19]: 7% | inhibition (Mus musculus [20]): inactive
